Patent publication US20220395467A1, “THERAPEUTIC PROTEIN-BASED NANOPARTICLES AND METHODS FOR MAKING THE SAME” (THE REGENTS OF THE UNIVERSITY OF MICHIGAN, priority 2019, published 2022)

Tested on: B16F10-OVA melanoma
Experiment: Therapeutic efficacy in murine model of B16F10-OVA melanoma
Type: in vivo, C57BL/6 mice
Procedure: FIGS. 9A-9B. FIGS. 9A-9B show therapeutic effect of OVA pNPs. In FIG. 9A, a vaccine doses and regimen for a murine model is shown. […] C57BL/6 mice are inoculated subcutaneously with 1×10^5 B 16F10-OVA cells on day 0. On days 7 and 14, mice are treated with indicated formulations (OVA pNP, soluble OVA, PBS) containing 10 μg/dose OVA and 15 μg/dose CpG (100 μL dose). Data represent mean±SEM (n=10). Groups are compared using Kaplan-Meier estimator analysis. P<0.05 is considered statistically different (*P<0.05). P>0.05 is considered not significant.
Therapeutic efficacy of pNPs in a model of melanoma. Encouraged by the fact that OVA pNPs with 10% PEG/OVA ratio result in increased OT-I CD8+ cell proliferation in vitro, improved uptake by APCs (both in vitro and in vivo), and enhanced humoral immune response in vivo, a murine model of B16F10-OVA melanoma was employed to evaluate the therapeutic efficacy of pNPs with a PEG/OVA ratio of 10% compared to solute OVA. […] Following the regimen shown in FIG. 9A, C57BL/6 mice (10 mice/treatment group) were inoculated with 1×10^5 B16F10-OVA cells in the SC flank on day 0. […] A second treatment was given on day 14. Mice were euthanized after their tumors reached 15 mm in any dimension. […] More than 50% of mice treated with solute OVA were euthanized due to large tumor burden on day 20, and 100% of the mice were euthanized on day 21.

[1] = treated days 7 and 14, 10 μg OVA + 15 μg CpG, n=10

How did the animal survival (solute OVA vs no treatment control, pNPs until endpoint day 24) turn out when “Ovalbumin [soluble OVA, soluble ovalbumin antigen used as control]” was run?
Its animal survival is “slightly better survival”.

What about the “mice euthanized due to large tumor burden on day 20” value [1] of the same substance?
The value was “More than 50%”.

And the “mice euthanized on day 21” value [1]?
The value was 100%.
